Like-named read-outs stand apart in the source and are kept apart here.
What was measured:
zebrafish embryos = test: Zebrafish embryo toxicity, mortality, behaviour; type: in vivo; conditions: 10µM
Procedure: Columns FE-FG: BIOBIDE group (data presented first in this paper). Zebrafish embryo toxicity, mortality, and behaviour change. 3 days post fertilization (dPf) zebrafish embryos from AB strain (wild type) were used for in vivo toxicity and behavioural screening. […] Then, embryos were incubated with each compound at 10 µM (1% DMSO) in E3 buffered with HEPES at 10 mM for 48 hours in 24 well plates, 5 embryos per well, 3 wells per condition (n=15). A group treated only with the vehicle was included in each plate as negative control. Afterwards, mortality and morphological alterations were assessed. Toxicity: When an altered phenotype (mortality, developmental abnormalities) appeared in more than 20% of cases it was considered toxic. […] For this purpose, 5dPf larvae (treated and negative controls) were transferred from 24-well treatment plate to 96-well plate, one embryo per well. 96-well plate was introduced in DanioVision system powered by Ethovision (Noldus). The behaviour was evaluated recording a total of 40 minutes in a round of 10 minutes under light and 10 minutes in darkness repeated twice. As activity is expected to differ under light and dark periods, the analysis was performed for each one of the 10 minutes phases. The differences between treated and controls for each parameter (distance, velocity) and phase was considered significant if p value is less than 0.005 (scored y for yes in HeatMap). Also, the p values between 0.01 and 0.005 were taken into account as an indicator of tendency (scored m for maybe in heat map). The toxic character of a compound was determined by the consistent differences (in both dark and light periods) between treated embryos and controls. […] If consistent results could not be obtained, the compound was scored i for indeterminate.

[1] = test system: Mycobacterium marinum in Acanthamoeba castellanii; test: A. castellanii-M. marinum infection assay; type: cell-based; conditions: 10µM
Procedure: (§1) Columns FA-FC: Soldati Group (data presented first in this paper). M. marinum, D. discoideum, and Acathamoeba castellani assays. Each compound of the Malaria Box has been assayed at 10 µM in all three assays. First, the antibiotic activity was assayed directly against Mycobacterium marinum in its culture medium. Second, the toxicity and growth inhibitory effect of the compounds was assayed against the amoeba Dictyostelium discoideum in its culture medium. Finally, the “in cellulo” anti-infective activity of each compound was tested using the intracellular infection system Acanthamoeba castellanii-M. marinum. Values have been normalized using the DMSO carrier. For each assay, values have been normalized to 1.00 using the DMSO carrier, which has no detectable effect on D. discoideum nor M. marinum growth, while rifabutin was used as positive control for the antibiotic assay and the infection assay, as it abolishes M. marinum growth (normalized value under 0.10) in broth at 10 µM and intracellularly at 30 µM [150].

[2] = test system: Saccharomyces cerevisiae strain JHY222; test: S. cerevisiae JHY222 growth in three media; type: cell-based; conditions: 100µM
Procedure: Columns EB-ED: St. Onge group (data presented first in this paper). Growth inhibition of S. cerevisiae: The effects of Malaria Box compounds on the growth of yeast (Saccharomyces cerevisiae) were quantified as described previously. We employed the prototrophic yeast strain JHY222, a derivative of BY4743 in which auxotrophic markers have been repaired. Growth was measured in three different growth media: rich medium using dextrose as a carbon source, minimal medium using dextrose as a carbon source, or minimal medium using ethanol and glycerol as carbon sources. Compounds affecting growth in a media-specific manner may represent inhibitors of key metabolic pathways. For example, the antifolate drug methotrexate was previously shown to inhibit yeast growth far more potently in minimal medium compared to rich medium.

A. ceylanicum L3 larvae = A. ceylanicum L3 larvae J. Keiser; type: cell-based, Ancylostoma ceylanicum; conditions: 200µM
[3] = test system: P. falciparum 3D7, HB3, Dd2, W2, K1, FCR3; test: Asexual EC50 image assay, six strains, Ayong; type: cell-based; conditions: Plasmodium falciparum
[4] = test system: HIV-1 JR-FL or HIV-1 NL4-3 pseudoviruses; test: HIV-1 pseudovirus infection luciferase; type: cell-based
Procedure: Columns FK-GB, Moore group (data presented first in this paper). HIV and HIV-producing cell lines, toxicity and viral suppression. […] MMV compounds were incubated with HIV-1 JR-FL or HIV-1 NL4-3 pseudoviruses and U87-CD4-CCR5 or U87-CD4-CXCR4 cells (obtained through the NIH AIDS Reagent Program, Division of AIDS, NIAID, NIH: U87 CD4+CCR5+ Cells from Dr. HongKui Deng and Dr. Dan R. Littman) respectively for 3 days. Cells were assayed for infection by luciferase production (Bright-Glo Luciferase Substrate, Promega) and cell viability by MTT assay. […] MMV compounds were next incubated with HIV-1 JR-FL or HIV-1 NL4-3 viruses and U87-CD4-CCR5 or U87-CD4-CXCR4 cells respectively for 7 days. Cell supernatants were assayed for viral production by p24 ELISA [153] and cell viability by MTT assay. […] DMSO (5%) was completely toxic to all cells (based on visual inspection) and served as the positive control for MTT assays.

wild type yeast cells = test: WT yeast (PMT assay control); conditions: Saccharomyces cerevisiae
[5] = test system: Mycobacterium tuberculosis mc26220 non-replicating; test: microbe, parasite or virus in culture; type: cell-based
[6] = test system: P. falciparum NF54 GFP-Pfs16 gametocytes stage IV-V; conditions: ref [64], cited from earlier work
Mycobacterium marinum = test: M. marinum antibiotic assay; type: cell-based; conditions: 10µM
Procedure: as §1

[7] = read-out: P. falciparum 3D7 asexual blood stage EC50 (Image) Ayong
[8] = read-out: P. falciparum Dd2 asexual blood stage EC50 (Image) Ayong
[9] = read-out: P. falciparum FCR3 asexual blood stage EC50 (Image) Ayong
[10] = read-out: P. falciparum HB3 asexual blood stage EC50 (Image) Ayong
[11] = read-out: P. falciparum K1 asexual blood stage EC50 (Image) Ayong
[12] = read-out: P. falciparum W2 asexual blood stage EC50 (Image) Ayong
[13] = Human immunodeficiency virus 1, NL43, read-out: HIV JRFL % inhibition rep1 in U87 Luc
[14] = Human immunodeficiency virus 1, NL43, read-out: HIV JRFL % inhibition rep2 in U87 Luc
[15] = Human immunodeficiency virus 1, NL43, read-out: HIV NL4-3 % inhibition rep1 in U87 Luc
[16] = read-out: % Inhibition in WT yeast (PMT assay control), no added choline
[17] = read-out: % Inhibition in WT yeast (PMT assay control), with added choline

Structure (SMILES)	Zebrafish % mortality (zebrafish embryos) [%]	Zebrafish Toxicity (mortality and dev abnl) (zebrafish embryos)	Mycobacterium marinum growth in Acanthamoeba castellanii DMSO=1 Infection Assay [1]	S. cerevisiae jhy222 in YNBD medium growth compared with DMSO control [2]	S. cerevisiae jhy222 in YNBEG medium growth compared with DMSO control [2]	S. cerevisiae jhy222 in YPD medium growth compared with DMSO control [2]	Anyclostoma ceylanicum L3 larvae effect (%) (A. ceylanicum L3 larvae)	EC50 [3, 7] [µM]	EC50 [3, 8] [µM]	EC50 [3, 9] [µM]	EC50 [3, 10] [µM]	EC50 [3, 12] [µM]	inhibition at 5 µM [4, 13] [%]	inhibition at 5 µM [4, 14] [%]	inhibition at 5 µM [4, 15] [%]	inhibition at 100 µM (wild type yeast cells; [16]) [%]	inhibition at 100 µM (wild type yeast cells; [17]) [%]	inhibition at 25 µM [5] [%]	gametocyte late stage (IV-V) GFP-MTR % inhibition ([6]; 0.5µM) [%]	gametocyte late stage (IV-V) GFP-MTR % inhibition ([6]; 5µM) [%]	other results
CCN1CCN(c2cc(C)c3cc(NC(=O)c4ccc(OC)c(OC)c4)ccc3n2)CC1 [MMV019074]	0	y (altered phenotype (mortality, developmental abnormalities) appeared in more than 20% of cases it was considered toxic)	0.93	0.0025	-0.0049	-0.0537	0	0.904	1.27	2.61	1.5	2.95	11	-62	13	0	0	13	-6.56	4	EC50 [3, 11]: 1.32 µM
COc1ccc(C(=O)Nc2ccc3nc(N4CCCCC4)cc(C)c3c2)cc1OC [MMV019758]	13	y (altered phenotype (mortality, developmental abnormalities) appeared in more than 20% of cases it was considered toxic)	1.23	0.0051	0.20	0.0044	0	1.6	3.29	–	3.44	4.47	4.56	-50	7	0	0	24	3.3	51	Mycobacterium marinum relative growth DMSO=1 Antibiotic Assay (Mycobacterium marinum): 1.01
CCN(CC)c1cc(C)c2cc(NC(=O)c3cccc(OC)c3)ccc2n1 [MMV000498]	0	–	0.94	-0.05	0.14	-0.0562	0	1.8	2.45	4.56	2.8	2.74	-9	52	15	0	0	20	-0.167	87	EC50 [3, 11]: 3.53 µM; Mycobacterium marinum relative growth DMSO=1 Antibiotic Assay (Mycobacterium marinum): 0.98
COc1cc2cc(C(=O)Nc3ccccc3)c(N)nc2cc1OC [MMV006767]	0	y (altered phenotype (mortality, developmental abnormalities) appeared in more than 20% of cases it was considered toxic)	1.18	-0.11	-0.49	-0.0536	0	0.592	0.357	0.931	0.812	0.797	93	64	96	0	0	1.39	3	-13	EC50 [3, 11]: 1.49 µM
CCOC(=O)c1cnc2ccc(OC)cc2c1NCc1ccccc1 [MMV665813]	100	y (altered phenotype (mortality, developmental abnormalities) appeared in more than 20% of cases it was considered toxic)	1.26	-0.13	-0.06	0.0021	0	–	3.32	–	–	–	-33	-10	-135	0	0	23	10	2	Mycobacterium marinum relative growth DMSO=1 Antibiotic Assay (Mycobacterium marinum): 0.86

Source: PMC4965013, “Open Source Drug Discovery with the Malaria Box Compound Collection for Neglected Diseases and Beyond” (PLoS Pathogens, 2016)
